How the values were obtained:
[1] = molecular target: Alpha-2A adrenergic receptor (Homo sapiens, UniProt P08913); assay: Displacement of [3H]RX 821002 from recombinant human alpha2A receptor measured after 60 mins by scintillation counting analysis
[2] = molecular target: T1, Cytochrome P450 3A4 (Homo sapiens, UniProt P08684); assay: Drug metabolism assessed as recombinant human liver CYP3A4-mediated formation of d5-desmethyl-zicronapine at 10 uM measured after 15 to 180 mins in presence of zicronapine by LC-MS/MS analysis; type: ADME; conditions: recombinant enzyme, time 15-180 min
T1 sequence (P08684 whole entry): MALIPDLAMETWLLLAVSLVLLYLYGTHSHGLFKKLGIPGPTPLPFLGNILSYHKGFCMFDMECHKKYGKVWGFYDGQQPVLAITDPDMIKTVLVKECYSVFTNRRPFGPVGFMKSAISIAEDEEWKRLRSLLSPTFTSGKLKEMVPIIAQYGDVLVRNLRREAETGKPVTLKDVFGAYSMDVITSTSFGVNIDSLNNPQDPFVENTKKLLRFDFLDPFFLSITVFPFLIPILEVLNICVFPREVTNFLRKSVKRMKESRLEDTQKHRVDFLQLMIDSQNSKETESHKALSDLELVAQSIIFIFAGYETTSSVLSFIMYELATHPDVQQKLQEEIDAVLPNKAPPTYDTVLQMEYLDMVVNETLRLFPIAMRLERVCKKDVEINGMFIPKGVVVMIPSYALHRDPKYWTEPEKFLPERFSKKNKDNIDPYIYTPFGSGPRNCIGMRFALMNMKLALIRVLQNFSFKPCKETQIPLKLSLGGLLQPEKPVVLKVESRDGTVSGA

[3] = molecular target: Alpha-2B adrenergic receptor (Homo sapiens, UniProt P18089); assay: Displacement of [3H]RX 821002 from recombinant human alpha2B receptor measured after 60 mins by scintillation counting analysis
[4] = molecular target: D(4) dopamine receptor (Homo sapiens, UniProt P21917); assay: Displacement of [3H]methyl-spiperone from recombinant human D4.4 receptor measured after 60 mins by scintillation counting analysis
[5] = Drug metabolism in human liver microsomes assessed as formation of desmethyl-zicronapine at 10 uM measured after 15 to 180 mins in presence of NADPH regenerating system by LC-MS/MS analysis; type: ADME, Microsome; conditions: time 15-180 min
[6] = molecular target: Sodium-dependent dopamine transporter (Homo sapiens, UniProt Q01959); assay: Displacement of [3H]BTCP from recombinant human DAT measured after 120 mins by scintillation counting analysis
[7] = molecular target: 5-hydroxytryptamine receptor 2C (Homo sapiens, UniProt P28335); assay: Displacement of [125I](+/-)DOI from recombinant human 5-HT2C receptor measured after 60 mins by scintillation counting analysis
5-hydroxytryptamine receptor 2C, sequence (P28335 whole entry): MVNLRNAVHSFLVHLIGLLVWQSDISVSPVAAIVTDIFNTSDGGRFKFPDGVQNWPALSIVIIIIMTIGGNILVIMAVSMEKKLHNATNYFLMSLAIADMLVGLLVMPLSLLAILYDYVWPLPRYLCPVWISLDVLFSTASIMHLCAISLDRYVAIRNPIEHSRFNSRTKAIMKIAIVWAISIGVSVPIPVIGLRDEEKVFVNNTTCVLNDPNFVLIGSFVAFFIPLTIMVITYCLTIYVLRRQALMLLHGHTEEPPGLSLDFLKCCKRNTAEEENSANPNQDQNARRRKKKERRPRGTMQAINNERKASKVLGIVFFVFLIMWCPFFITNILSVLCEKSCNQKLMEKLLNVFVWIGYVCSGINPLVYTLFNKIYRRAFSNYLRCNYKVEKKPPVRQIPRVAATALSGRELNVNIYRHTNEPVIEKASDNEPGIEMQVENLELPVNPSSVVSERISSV

[8] = molecular target: D(1B) dopamine receptor (Homo sapiens, UniProt P21918); assay: Displacement of [3H]SCH 23390 from recombinant human D5 receptor measured after 60 mins by scintillation counting analysis
[9] = molecular target: Alpha-1A adrenergic receptor (Homo sapiens, UniProt P35348); assay: Displacement of [3H]prazosin from recombinant human alpha1A receptor measured after 60 mins by scintillation counting analysis
[10] = molecular target: T2, Cytochrome P450 2C19 (Homo sapiens, UniProt P33261); assay: Drug metabolism assessed as recombinant human liver CYP2C19-mediated formation of d5-desmethyl-zicronapine at 10 uM measured after 15 to 180 mins in presence of zicronapine by LC-MS/MS analysis; type: ADME; conditions: recombinant enzyme, time 15-180 min
T2 sequence (P33261 whole entry): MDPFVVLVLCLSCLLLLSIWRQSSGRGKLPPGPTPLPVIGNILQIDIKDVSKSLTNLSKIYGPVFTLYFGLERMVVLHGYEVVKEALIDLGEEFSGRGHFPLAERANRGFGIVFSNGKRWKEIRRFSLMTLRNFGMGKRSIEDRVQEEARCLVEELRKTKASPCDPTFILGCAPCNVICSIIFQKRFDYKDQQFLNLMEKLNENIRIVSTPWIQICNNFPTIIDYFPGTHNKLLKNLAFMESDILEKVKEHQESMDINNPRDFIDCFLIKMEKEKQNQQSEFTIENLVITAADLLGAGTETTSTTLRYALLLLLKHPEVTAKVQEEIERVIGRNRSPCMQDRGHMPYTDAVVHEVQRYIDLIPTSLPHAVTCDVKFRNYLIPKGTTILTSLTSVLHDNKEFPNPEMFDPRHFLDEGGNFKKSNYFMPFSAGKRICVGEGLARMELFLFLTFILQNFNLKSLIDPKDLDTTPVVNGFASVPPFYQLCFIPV

[11] = molecular target: Alpha-1B adrenergic receptor (Homo sapiens, UniProt P35368); assay: Displacement of [3H]prazosin from recombinant human alpha1B receptor measured after 60 mins by scintillation counting analysis
Alpha-1B adrenergic receptor, sequence (P35368 whole entry): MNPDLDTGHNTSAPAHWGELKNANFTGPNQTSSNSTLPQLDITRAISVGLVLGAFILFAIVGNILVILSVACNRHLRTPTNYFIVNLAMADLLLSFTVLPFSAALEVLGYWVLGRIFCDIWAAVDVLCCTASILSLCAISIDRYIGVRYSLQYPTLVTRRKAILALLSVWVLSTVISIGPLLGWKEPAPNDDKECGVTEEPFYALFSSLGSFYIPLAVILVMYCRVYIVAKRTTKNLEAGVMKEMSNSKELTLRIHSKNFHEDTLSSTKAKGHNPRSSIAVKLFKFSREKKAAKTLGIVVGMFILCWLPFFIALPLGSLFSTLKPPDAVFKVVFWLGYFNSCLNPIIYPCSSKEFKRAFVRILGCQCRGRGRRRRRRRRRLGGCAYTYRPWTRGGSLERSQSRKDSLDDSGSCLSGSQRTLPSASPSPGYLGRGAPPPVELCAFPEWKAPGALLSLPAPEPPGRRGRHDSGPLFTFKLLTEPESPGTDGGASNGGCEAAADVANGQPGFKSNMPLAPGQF

[12] = molecular target: Alpha-2C adrenergic receptor (Homo sapiens, UniProt P18825); assay: Displacement of [3H]RX 821002 from recombinant human alpha2C receptor measured after 60 mins by scintillation counting analysis
[13] = molecular target: 5-hydroxytryptamine receptor 1A (Homo sapiens, UniProt P08908); assay: Displacement of [3H]8-OH-DPAT from recombinant human 5-HT1A receptor measured after 60 mins by scintillation counting analysis
[14] = molecular target: Histamine H1 receptor (Homo sapiens, UniProt P35367); assay: Displacement of [3H]pyrilamine from recombinant human H1 receptor measured after 60 mins by scintillation counting analysis
Histamine H1 receptor, sequence (P35367 whole entry): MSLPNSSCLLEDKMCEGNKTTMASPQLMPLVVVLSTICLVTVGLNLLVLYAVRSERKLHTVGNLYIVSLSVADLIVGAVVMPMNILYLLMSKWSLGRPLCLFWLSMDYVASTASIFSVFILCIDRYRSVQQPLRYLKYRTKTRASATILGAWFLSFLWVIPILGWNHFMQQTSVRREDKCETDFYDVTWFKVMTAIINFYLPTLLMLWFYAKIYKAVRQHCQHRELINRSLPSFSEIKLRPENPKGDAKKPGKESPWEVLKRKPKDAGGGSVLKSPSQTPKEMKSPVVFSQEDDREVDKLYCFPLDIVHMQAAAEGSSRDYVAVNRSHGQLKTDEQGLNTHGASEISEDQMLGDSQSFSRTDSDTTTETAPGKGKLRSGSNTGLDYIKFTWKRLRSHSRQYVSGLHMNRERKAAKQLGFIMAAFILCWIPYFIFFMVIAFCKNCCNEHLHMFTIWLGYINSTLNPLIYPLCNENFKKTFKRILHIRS

[15] = Drug metabolism in human liver microsomes assessed as formation of d5-desmethyl-zicronapine at 10 uM measured after 15 to 180 mins in presence of NADPH regenerating system by LC-MS/MS analysis; type: ADME, Microsome; conditions: time 15-180 min
[16] = molecular target: Alpha-1D adrenergic receptor (Homo sapiens, UniProt P25100); assay: Displacement of [3H]prazosin from recombinant human alpha1D receptor measured after 60 mins by scintillation counting analysis
Alpha-1D adrenergic receptor, sequence (P25100 whole entry): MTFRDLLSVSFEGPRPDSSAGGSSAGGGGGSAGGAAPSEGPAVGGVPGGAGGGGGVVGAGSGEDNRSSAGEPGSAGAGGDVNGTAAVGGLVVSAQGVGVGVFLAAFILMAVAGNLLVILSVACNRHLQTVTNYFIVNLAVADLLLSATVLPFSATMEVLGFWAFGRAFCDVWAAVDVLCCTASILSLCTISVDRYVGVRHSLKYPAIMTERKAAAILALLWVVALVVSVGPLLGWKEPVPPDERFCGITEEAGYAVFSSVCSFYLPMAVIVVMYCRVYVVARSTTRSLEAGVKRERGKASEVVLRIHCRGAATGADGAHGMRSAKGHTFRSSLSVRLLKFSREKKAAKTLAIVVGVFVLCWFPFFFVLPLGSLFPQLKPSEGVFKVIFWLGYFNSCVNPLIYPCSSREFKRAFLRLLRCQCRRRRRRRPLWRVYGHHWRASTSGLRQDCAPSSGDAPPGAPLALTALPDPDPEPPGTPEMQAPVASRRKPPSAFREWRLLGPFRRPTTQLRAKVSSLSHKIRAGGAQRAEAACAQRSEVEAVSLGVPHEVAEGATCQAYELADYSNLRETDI

[17] = molecular target: 5-hydroxytryptamine receptor 7 (Homo sapiens, UniProt P34969); assay: Displacement of [3H]LSD from recombinant human 5-HT7 receptor measured after 120 mins by scintillation counting analysis
5-hydroxytryptamine receptor 7, sequence (P34969 whole entry): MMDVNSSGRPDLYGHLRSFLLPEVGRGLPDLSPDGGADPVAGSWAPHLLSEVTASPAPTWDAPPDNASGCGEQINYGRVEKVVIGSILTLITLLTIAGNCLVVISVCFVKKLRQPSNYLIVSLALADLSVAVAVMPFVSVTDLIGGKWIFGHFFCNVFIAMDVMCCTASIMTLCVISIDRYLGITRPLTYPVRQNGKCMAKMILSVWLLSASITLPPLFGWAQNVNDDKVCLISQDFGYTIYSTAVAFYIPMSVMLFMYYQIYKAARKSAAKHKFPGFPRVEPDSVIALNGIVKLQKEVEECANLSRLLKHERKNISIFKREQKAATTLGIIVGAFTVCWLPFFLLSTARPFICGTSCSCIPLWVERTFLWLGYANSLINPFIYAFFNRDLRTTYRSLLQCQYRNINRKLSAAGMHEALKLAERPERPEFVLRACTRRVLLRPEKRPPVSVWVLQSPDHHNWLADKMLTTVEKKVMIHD

[18] = molecular target: D(3) dopamine receptor (Homo sapiens, UniProt P35462); assay: Displacement of [3H]methyl-spiperone from recombinant human D3 receptor measured after 60 mins by scintillation counting analysis
D(3) dopamine receptor, sequence (P35462 whole entry): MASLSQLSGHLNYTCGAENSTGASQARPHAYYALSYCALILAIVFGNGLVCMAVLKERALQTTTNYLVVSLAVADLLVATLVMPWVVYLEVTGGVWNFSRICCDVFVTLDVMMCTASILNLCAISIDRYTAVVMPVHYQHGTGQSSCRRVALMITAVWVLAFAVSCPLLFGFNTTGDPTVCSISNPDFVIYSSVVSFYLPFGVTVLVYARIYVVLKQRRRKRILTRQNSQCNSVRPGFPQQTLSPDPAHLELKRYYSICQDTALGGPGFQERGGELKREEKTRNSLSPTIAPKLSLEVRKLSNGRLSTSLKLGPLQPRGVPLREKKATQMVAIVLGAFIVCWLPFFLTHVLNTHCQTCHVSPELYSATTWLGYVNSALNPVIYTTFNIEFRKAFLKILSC

[19] = molecular target: 5-hydroxytryptamine receptor 2B (Homo sapiens, UniProt P41595); assay: Displacement of [125I](+/-)DOI from recombinant human 5-HT2B receptor measured after 60 mins by scintillation counting analysis
5-hydroxytryptamine receptor 2B, sequence (P41595 whole entry): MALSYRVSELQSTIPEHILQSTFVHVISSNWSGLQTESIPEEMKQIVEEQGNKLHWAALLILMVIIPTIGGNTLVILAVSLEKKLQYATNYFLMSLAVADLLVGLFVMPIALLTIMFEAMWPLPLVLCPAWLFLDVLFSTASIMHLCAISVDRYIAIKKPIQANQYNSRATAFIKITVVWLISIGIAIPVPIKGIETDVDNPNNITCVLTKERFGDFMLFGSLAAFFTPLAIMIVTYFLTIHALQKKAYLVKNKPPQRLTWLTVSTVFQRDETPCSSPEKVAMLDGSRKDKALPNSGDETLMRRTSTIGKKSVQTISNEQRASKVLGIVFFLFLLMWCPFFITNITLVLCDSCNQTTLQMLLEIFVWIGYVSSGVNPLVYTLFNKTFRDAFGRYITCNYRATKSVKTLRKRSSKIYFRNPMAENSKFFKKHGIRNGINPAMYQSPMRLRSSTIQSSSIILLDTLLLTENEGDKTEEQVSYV

[20] = molecular target: 5-hydroxytryptamine receptor 1B (Rattus norvegicus, UniProt P28564); assay: Displacement of [125I]CYP from rat brain 5HT1B receptor measured after 120 mins by scintillation counting analysis
[21] = molecular target: 5-hydroxytryptamine receptor 2A (Homo sapiens, UniProt P28223); assay: Displacement of [125I](+/-)DOI from recombinant human 5-HT2A receptor measured after 60 mins by scintillation counting analysis
[22] = molecular target: D(2) dopamine receptor (Homo sapiens, UniProt P14416); assay: Displacement of [3H]7-OH-DPAT from recombinant human D2S receptor measured after 60 mins by scintillation counting analysis
[23] = molecular target: D(1A) dopamine receptor (Homo sapiens, UniProt P21728); assay: Displacement of [3H]SCH 23390 from recombinant human D1 receptor measured after 60 mins by scintillation counting analysis
[24] = molecular target: 5-hydroxytryptamine receptor 6 (Homo sapiens, UniProt P50406); assay: Displacement of [3H]LSD from recombinant human 5-HT6 receptor measured after 120 mins by scintillation counting analysis
[25] = molecular target: T2, Cytochrome P450 2C19; assay: Drug metabolism assessed as recombinant human liver CYP2C19-mediated formation of desmethyl-zicronapine at 10 uM measured after 15 to 180 mins in presence of Lu AF35700 by LC-MS/MS analysis; type: ADME; conditions: recombinant enzyme, time 15-180 min
[26] = molecular target: T1, Cytochrome P450 3A4; assay: Drug metabolism assessed as recombinant human liver CYP3A4-mediated formation of d5-desmethyl-zicronapine at 10 uM measured after 15 to 180 mins in presence of Lu AF35700 by LC-MS/MS analysis; type: ADME; conditions: recombinant enzyme, time 15-180 min
[27] = molecular target: T2, Cytochrome P450 2C19; assay: Drug metabolism assessed as recombinant human liver CYP2C19-mediated formation of d5-desmethyl-zicronapine at 10 uM measured after 15 to 180 mins in presence of Lu AF35700 by LC-MS/MS analysis; type: ADME; conditions: recombinant enzyme, time 15-180 min
[28] = molecular target: T2, Cytochrome P450 2C19; assay: Drug metabolism assessed as recombinant human liver CYP2C19-mediated formation of desmethyl-zicronapine at 10 uM measured after 15 to 180 mins in presence of d5-zicronapine by LC-MS/MS analysis; type: ADME; conditions: recombinant enzyme, time 15-180 min
[29] = molecular target: T1, Cytochrome P450 3A4; assay: Drug metabolism assessed as recombinant human liver CYP3A4-mediated formation of desmethyl-zicronapine at 10 uM measured after 15 to 180 mins in presence of Lu AF35700 by LC-MS/MS analysis; type: ADME; conditions: recombinant enzyme, time 15-180 min
[30] = molecular target: T1, Cytochrome P450 3A4; assay: Drug metabolism assessed as recombinant human liver CYP3A4-mediated formation of desmethyl-zicronapine at 10 uM measured after 15 to 180 mins in presence of d5-zicronapine by LC-MS/MS analysis; type: ADME; conditions: recombinant enzyme, time 15-180 min

Alpha-2A adrenergic receptor, sequence (P08913 whole entry): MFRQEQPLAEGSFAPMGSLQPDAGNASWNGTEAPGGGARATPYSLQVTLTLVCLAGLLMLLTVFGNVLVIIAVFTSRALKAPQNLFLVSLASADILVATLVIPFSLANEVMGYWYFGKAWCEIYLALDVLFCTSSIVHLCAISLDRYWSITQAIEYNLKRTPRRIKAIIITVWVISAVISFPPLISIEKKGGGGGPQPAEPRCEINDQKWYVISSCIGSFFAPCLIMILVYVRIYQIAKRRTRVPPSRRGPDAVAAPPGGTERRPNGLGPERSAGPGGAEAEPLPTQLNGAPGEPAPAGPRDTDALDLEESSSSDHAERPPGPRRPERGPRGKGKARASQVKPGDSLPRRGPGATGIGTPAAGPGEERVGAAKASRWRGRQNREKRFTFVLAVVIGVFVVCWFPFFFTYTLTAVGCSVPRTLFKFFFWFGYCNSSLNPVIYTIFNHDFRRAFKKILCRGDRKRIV

| Ki [1] [µM] | Drug metabolism [2] | Ki [3] [µM] | Ki [4] [µM] | Drug metabolism [5] | Ki [6] [µM] | Ki [7] [µM] | Ki [8] [µM] | Ki [9] [µM] | Drug metabolism [10] | Ki [11] [µM] | Ki [12] [µM] | Ki [13] [µM] | Ki [14] [µM] | Drug metabolism [15] | Ki [16] [µM] | Ki [17] [µM] | Ki [18] [µM] | Ki [19] [µM] | Ki [20] [µM] | SMILES | further results |
| --- | --- | --- | --- | --- | --- | --- | --- | --- | --- | --- | --- | --- | --- | --- | --- | --- | --- | --- | --- | --- | --- |
| 0.56 | Metabolite_Detected | 0.047 | 0.0068 | Metabolite_Detected | 4.2 | 0.0015 | 0.00037 | 0.0034 | Metabolite_Detected | 0.0029 | 0.0097 | 0.089 | 0.004 | Metabolite_Detected | 0.0095 | 0.0038 | 0.016 | 0.0004 | 0.17 | [2H]c1c([2H])c([2H])c([C@@H]2C[C@@H](N3CCN(C([2H])([2H])[2H])C(C)(C)C3)c3cc(Cl)ccc32)c([2H])c1[2H] |  |
|  | Metabolite_Detected |  |  | Metabolite_Detected |  |  |  |  | Metabolite_Detected |  |  |  |  | Metabolite_Detected |  |  |  |  |  | [2H]c1c([2H])c([2H])c([C@@H]2C[C@@H](N3CCN(C)C(C)(C)C3)c3cc(Cl)ccc32)c([2H])c1[2H] |  |
| 2.5 |  | 0.49 | 0.011 |  | 0.51 | 0.0011 | 0.00067 | 0.013 |  | 0.011 | 0.16 | 0.42 | 0.0066 |  | 0.035 | 0.011 | 0.059 | 0.00039 | 0.66 | [2H]c1c([2H])c([2H])c([C@@H]2C[C@@H](N3CCNC(C)(C)C3)c3cc(Cl)ccc32)c([2H])c1[2H] | Ki [21]: 0.00084 µM; Ki [22]: 0.011 µM; Ki [23]: 0.001 µM; Ki [24]: 0.00073 µM |
|  |  |  |  |  |  |  |  |  |  |  |  |  |  |  |  |  |  |  |  | CN1CCN([C@@H]2C[C@@H](c3ccccc3)c3ccc(Cl)cc32)CC1(C)C [ZICRONAPINE] | Drug metabolism [25]: Metabolite_Detected; Drug metabolism [26]: Metabolite_Detected; Drug metabolism [27]: Metabolite_Detected; Drug metabolism [28]: Metabolite_Detected; Drug metabolism [29]: Metabolite_Detected; Drug metabolism [30]: Metabolite_Detected |

Source: ChEMBL document CHEMBL5113485, “Distal kinetic deuterium isotope effect: Phenyl ring deuteration attenuates N-demethylation of Lu AF35700” (Bioorg Med Chem Lett, 2022)
